Data reported in patent publication US20220160680A1, “MICROORGANISM MIXTURES, MOLECULES DERIVED THEREFROM, AND METHODS OF USE THEREOF” (B. G. Negev Technologies and Applications Ltd., at …, priority 2018, published 2022).
“Also recorded” adds a separate entry of the source.

Legend:
[1] = tested on: V. cholerae VC1 (WT) and MM920; experiment: V. cholerae biofilm modulation (CLSM, crystal violet); format: cell-based, Vibrio cholerae
Experimental: The various pathogenic indicator strains used in this study were V. cholerae strain MM920 (ACqsA AluxQ), Vibrio harveyi strain MM30 (LuxS, Tn5). To initiate biofilm formation, bacteria was grown in the absence of the V. cholerae autoinducer 1 (CAI1). In addition, the bacteria were grown in presence of: 900 nM CAI1 (Vibrio Cholerae MM920), 900 nM CAI1, 200 μM Tryptophol acetate and 200 μM Tyrosol acetate, and 200 μM Tryptophol acetate and 200 μM Tyrosol acetate.
Biofilms were grown under shaking conditions at 30° C. in 96-well plate (Thermo Scientific, Rochester, N.Y., USA). […] The stained cells were washed twice with PBS. Biofilm images were taken by CLSM (Plan-Apochromat 20×/0.8 M27, Zeiss LSM880, Germany).
For static biofilm assay, overnight cultures of V. cholerae strain MM920 was diluted 1:10 in fresh LB medium containing a final concentration of 100 μM from each Tryptophol acetate and Tyrosol acetate or DMSO (up to 1%) as control. […] One in absence of the V. cholerae autoinducer (CAI-1) and the other one in presence of 900 nM CAI-1. Biofilms were grown under non-shaking conditions at 37° C. in 96-well plate (Thermo Scientific, Rochester, N.Y., USA). […] The stained cells were washed twice with PBS. Biofilm images were taken by CLSM (Plan-Apochromat 20×/0.8 M27, Zeiss LSM880, Germany).
Biofilm matrixes of V. cholerae VC1 WT (FIGS. 23Ai and 23Aii), and the V. cholerae MM920 mutant (FIGS. 23Aiii and 23Aiv) were grown for 24 hours with or without tryptophol acetate in the growth medium, and stained using the BacLight® Dead/Live Kit to distinguish viable cells.

[2] = DPPH radical absorbance assay; format: biochemical; details: 517 nm
Excerpt: FIGS. 34A-34B are graphs showing the anti-oxidation effect of tryptophol acetate and tyrosol acetate. Anti-oxidative capacity of the molecules as measured by DPPH (34A) and ORAC (34B) assays. 34A. The results are presented as a percentage of absorbance inhibition (517 nm, the absorbance maximum of DPPH) in the presence of tryptophol acetate (1) alone, tyrosol acetate alone (2) alone, and 1+2 together. 34B. Fluorescence decay of fluorescein induced by AAPH in the absence or presence of 1 and 2. Reaction mixtures containing fluorescein (60 nM) and AAPH (18.75 mM) in 200 μl of phosphate buffer (75 mM, pH 7.4) were incubated at 37° C. for 800 min. Changes in fluorescence intensity emitted by fluorescein were monitored. Results are presented as the net area under the curve (AUC). Each value is the mean±SD of triplicate experiments. ***p<0.0001
The inventors analyzed the anti-oxidation properties of the molecules (FIG. 34) as oxidation processes and generation of reactive oxidative species (ROS) are recognized as contributing to toxic effects in diverse diseases and pathological conditions. FIG. 34 depicts application of a spectrophotometric assay monitoring the visible absorbance of the 2,2-diphenyl-1-picrylhydrazyl (DPPH) radical, which is widely employed for evaluating the anti-oxidation activity of biomolecules. […]

V. cholerae toxin = experiment: GM1-ELISA cholerae toxin detection assay; format: cell-based, Vibrio cholerae
Experimental: GM1 (monosialotetrahexosylganglioside) was seeded and immobilized on a 96-well white/clear bottom microtiter plate (Greiner) microtiter plates with the following procedure: GM1 stock solution (2 mg/mL in PBS) was diluted with PBS (final conc. 10 μg/mL). 200 μL of the GM1 solution was added to each well and incubated at 37° C. without shaking for 4-16 hours. The plates were washed with PBS (×3). Bovine serum albumin (BSA) was dissolved in PBS (final conc. 4 mg/mL) and 200 μL of the BSA-PBS were added to each well and incubated at 37° C. without shaking for at least 4 hours. The plates were washed with PBS (×3) and were stored in fridge until use. VC1 wild-type strain with of the tested compounds (Tryptophol acetate and Tyrosol acetate both in concentration of 100 μM) and a control with bacteria only, were grown and incubated with aeration and shaking overnight in LB medium at 30° C. The cultures were spinned-down for 5 min at 5,000 rcf and the supernatant was taken and diluted 1:2 with a BSA-PBS 4 mg/mL solution. […] 100 μL of the luminol working solution were added to each well, the plate was shaken for 1.5-2 minutes and the luminescence was measured using a Microtiter Plate Reader (Varioskan Flash, Thermo). Luminescence values were normalized to the control.

Peritoneal macrophages = experiment: In vitro LPS stimulation of peritoneal macrophages, cytokine ELISA (24 hr); format: cell-based, mice; details: 100 μM, 0.1 μg/ml LPS
Experimental: Peritoneal macrophages were harvested using the protocol as described previously (Zhang et al., 2008). Elicited macrophages were harvested from WT mice which had received a 2.5 ml intraperitoneal administration of 3% Brewer thioglycolate broth (Sigma, UK) 72 hr prior collection.
Peritoneal macrophages cells (5×10^5/ml) were cultured with 0.1 μg/ml Lipopolysaccharides (LPS-Escherichia coli serotype 0127:B8, Sigma-Aldrich) and in the presence of 100 μM: tryptophol acetate, tyrosol acetate, dopamine HCl, caffeic acid, or combination of tryptophol acetate and tyrosol acetate, for 24 hr. Following culture, supernatants were collected and stored at −20° C. for the detection of the IL-6 cytokine. For IL-la detection, the inventors induced macrophages lysis by adding fresh RPMI medium and thawing three times.
IL-la and IL-6 levels were measured in peritoneal exudate fluids and LPS-stimulated culture supernatants by ELISA. To detect the cytokines, a R&D ELISA kit (Catalog #MLA00 and DY406, respectively) was used as per the manufacturer's instructions. A standard curve was constructed using serial dilutions of purified IL-la or IL-6 starting at a concentration of 15 ng/ml.

amyloid beta (αβ1-42) = target: T1, amyloid beta (αβ1-42) (Homo sapiens, UniProt P05067); experiment: Surface plasmon resonance, anti-amyloid oligomer antibody chip; format: binding; details: 30 μM αβ1-42, 6-200 μM
T1 construct: samples containing 30 μM amyloid beta [4(1-42)] in the absence or presence of tryptophol acetate
T1 sequence (P05067 672-713 limits assumed): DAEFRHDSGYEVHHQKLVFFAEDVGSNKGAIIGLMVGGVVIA
Experimental: SPR sensor chip with Oligomer All antibody, an anti-amyloid oligomer conformation-specific antibody was tested with samples containing 30 μM 4(1-42) in the absence or presence of tryptophol acetate in different concentrations.

| SMILES | V. cholerae biofilm production ([1]; 100 μM) | Quenching of DPPH absorbance [2] [%] | V. cholerae toxin levels (V. cholerae toxin) | Production of IL-6 (Peritoneal macrophages) | Production of IL-la (Peritoneal macrophages) | Inhibition of amyloid beta (SPR) (amyloid beta (αβ1-42)) | Biofilm volume, crystal violet (CV) assay ([1]; 0-200 μM, 24 hr) | Biofilm of V. cholerae MM920 with CAI-1 ([1]; 900 nM CAI-1 and 100 μM) | Biofilm matrix of V. cholerae VC1 WT ([1]; 100 μM, 24 hours) |
| --- | --- | --- | --- | --- | --- | --- | --- | --- | --- |
| CC(=O)OCCc1ccc(O)cc1 [Tyrosol acetate] | inhibit | ~3 | inhibit; also recorded: reduction of toxin production by V. cholerae in a dose dependent manner | dramatically reduced | dramatically reduced | – | – | – | – |
| CC(=O)OCCc1c[nH]c2ccccc12 [Tryptophol acetate] | – | 10 | reduce V. cholerae toxin levels in a dose dependent manner | dramatically reduced | dramatically reduced | dose dependent manner | increased biofilm volume | re-formation of a dense and uniform biofilm layer | significantly denser biofilm |
